Data taken from patent US10562891B2, “Quinazolinones as PARP14 inhibitors” (Ribon Therapeutics Inc., priority 2017, dated 2020).
Where a name gives a salt, the structure may show the parent alone.

system: LL/2 cells; assay: Inhibition of tumor growth and survival in the LL/2 murine syngeneic model; type: in vivo, female C57BL/6 mice; conditions: LL/2 subcutaneous right flank, 500 mg/kg PO BID*21 days, treatment group versus vehicle group, study terminated D21
Source text: For the LL/2 study (FIGS. 4A-4C), female C57BL/6 mice were inoculated subcutaneously in the right flank with 5×10^5 LL/2 cells (ATCC, CRL-1642™) for tumor development. Five days after tumor inoculation, 16 mice with tumor size ranging from 37-72 mm^3 (average tumor size 51 mm^3) were selected and assigned into 2 groups using stratified randomization with 8 mice in each group based upon their tumor volumes. The treatments were started from the next day post randomization (defined as randomization day DO) and were treated with vehicle (0.5% methylcellulose +0.2% Tween 80), or the compound of Example 235 (500 mg/kg PO BID*21 days). The tumor sizes were measured three times per week during the treatment. The entire study was terminated on D21.
Statistical significance, calculated using 2way ANOVA multiple comparisons in which each treatment group was compared to vehicle control, is indicated by an asterisk. Statistics were performed on groups with less than 20% animal loss (D20 for 4T1, D17 for LL/2). Survival benefit was determined for the LL/2 study (FIG. 4B). Individual mice were euthanized once they reached the termination endpoint (TV>2000 mm3). The time from treatment initiation to termination was deemed as its survival time and plotted in a Kaplan-Meier survival curve format. Mice remaining at study end date of 21 days were euthanized at day 21 after treatment initiation. […]

Row | Compound | Tumor growth inhibition [%]
1 | O=c1[nH]c(CS[C@H]2CC[C@H](O)CC2)nc2cc(OCC3CC3)cc(F)c12 [Example 235, 7-(Cyclopropylmethoxy)-5-fluoro-2-(((trans-4-hydroxycyclohexyl)thio)methyl)quinazolin-4(3H)-one] | 63

system: 4T1 cells; assay: Inhibition of tumor growth in the 4T1 murine syngeneic model; type: in vivo, female BALB/c mice; conditions: 4T1 orthotopic in mammary fat pad, 500 mg/kg PO BID*21 days, treatment group versus vehicle group, study terminated D20
Source text: FIGS. 3A and 4A illustrate that a PARP14 inhibitor (Example 235) reduces tumor growth in the murine syngeneic models (A) 4T1 and (B) LL/2. For the 4T1 study (FIGS. 3A and 3B), female BALB/c mice were inoculated orthotopically in the mammary fat pad with 1×10^5 4T1 cells (ATCC, CRL-2539™) for tumor development. Seven days after tumor inoculation, 16 mice with tumor size ranging from 41-78 mm^3 (average tumor size 56 mm^3) were selected and assigned into 2 groups using stratified randomization with 8 mice in each group based upon their tumor volumes. The treatments were started from the next day post randomization (defined as randomization day DO) and were treated with vehicle (0.5% methylcellulose +0.2% Tween 80), or the compound of Example 235 (500 mg/kg PO BID*21 days). The tumor sizes were measured three times per week during the treatment. The entire study was terminated on D20.
Statistical significance, calculated using 2way ANOVA multiple comparisons in which each treatment group was compared to vehicle control, is indicated by an asterisk. Statistics were performed on groups with less than 20% animal loss (D20 for 4T1, D17 for LL/2). Survival benefit was determined for the LL/2 study (FIG. 4B). Individual mice were euthanized once they reached the termination endpoint (TV>2000 mm3). […]

Row | Compound | Tumor growth inhibition [%]
2 | O=c1[nH]c(CS[C@H]2CC[C@H](O)CC2)nc2cc(OCC3CC3)cc(F)c12 [Example 235, 7-(Cyclopropylmethoxy)-5-fluoro-2-(((trans-4-hydroxycyclohexyl)thio)methyl)quinazolin-4(3H)-one] | 31

target: catalytic domain of human PARP14 (Homo sapiens (Human), UniProt Q460N5); assay: Enzymatic assay for inhibition of PARP14 (DELFIA, auto-modification with biotin-NAD); type: biochemical; conditions: auto-modification of PARP14 by biotin-NAD, 50 nM PARP14, 3 μM biotin-NAD
Sequence (Q460N5 1611-1801): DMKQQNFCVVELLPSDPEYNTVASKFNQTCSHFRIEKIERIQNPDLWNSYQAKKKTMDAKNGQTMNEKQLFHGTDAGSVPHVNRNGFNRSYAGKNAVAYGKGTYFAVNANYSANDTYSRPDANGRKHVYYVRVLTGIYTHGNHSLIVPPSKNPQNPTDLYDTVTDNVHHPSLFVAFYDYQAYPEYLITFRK
Method in brief: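 His-TEV-tagged PARP14 catalytic domain (50 nM) preincubated with compound 30 min at 25 °C, then auto-modified with 3 μM biotin-NAD for 3 h at 25 °C in HEPES pH 8 buffer with DTT. IC50 from 4-parameter fit, rucaparib and DMSO as controls.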

Row | Compound | IC50 [nM]
3 | O=c1[nH]c(CS[C@H]2CC[C@H](O)CC2)nc2cc(OCC3CC3)cc(F)c12 [Example 235, 7-(Cyclopropylmethoxy)-5-fluoro-2-(((trans-4-hydroxycyclohexyl)thio)methyl)quinazolin-4(3H)-one] | < 1000
4 | Cc1cccc2c(=O)[nH]c(CSC3CCN(Cc4ccc(N(C)C)cc4)CC3)nc12 [Example 140, 2-(((1-(4-(Dimethylamino)benzyl)piperidin-4-yl)thio)methyl)-8-methylquinazolin-4(3H)-one trifluoroacetate] | < 1000
5 | O=c1[nH]c(CS[C@H]2CC[C@H](O)CC2)nc2cc(NC3CCCCC3)cc(F)c12 [Example 249, 7-(Cyclohexylamino)-5-fluoro-2-((((1r,4r)-4-hydroxycyclohexyl)thio)methyl)quinazolin-4(3H)-one] | < 1000
6 | CO[C@H]1C[C@@H](Nc2cc3nc(CS[C@H]4CC[C@H](NC(C)=O)CC4)[nH]c(=O)c3c(F)c2F)C1 [Example 389] | < 1000
7 | O=c1[nH]c(CS[C@H]2CC[C@H](O)CC2)nc2cc(NC3CCCC3)cc(C(F)(F)F)c12 [Example 199, 7-(cyclopentylamino)-2-((((1R,4R)-4-hydroxycyclohexyl)thio)methyl)-5-(trifluoromethyl)quinazolin-4(3H)-one] | < 1000

Now from value to compound:

Row | IC50 [nM] | Compound
8 | < 1000 | CC(=O)N[C@H]1CC[C@H](SCc2nc3cc(OCC4CCOCC4)cc(F)c3c(=O)[nH]2)CC1 [Example 426]
9 | < 1000 | O=c1[nH]c(CS[C@H]2C[C@H](O)C2)nc2cc(OCC3CCOCC3)cc(F)c12 [Example 382]
10 | > 10000 | Nc1cnn(-c2ccc3c(=O)[nH]c(CSC4CCOCC4)nc3c2)c1 [Example 93, 7-(4-Amino-1H-pyrazol-1-yl)-2-(((tetrahydro-2H-pyran-4-yl)thio)methyl) quinazolin-4(3H)-one Trifluoroacetate]
11 | < 1000 | O=c1[nH]c(CSC2CCOCC2)nc2cc(SCC3CCOCC3)cc(F)c12 [Example 370]
12 | < 1000 | O=c1[nH]c(CSC2CCNCC2)nc2cc(OCC3CC3)ccc12 [Example 275, 7-(Cyclopropylmethoxy)-2-((piperidin-4-ylthio)methyl)quinazolin-4(3H)-one]
13 | 1000 to 10000 | O=c1[nH]c(CS[C@H]2CC[C@H](CO)CC2)nc2cc(Nc3ccccc3)ccc12 [Example 104, 2-(((trans-4-(Hydroxymethyl)cyclohexyl)thio)methyl)-7-(phenylamino) quinazolin-4(3H)-one]
